Measured values taken from the supplement of paper PMC10307832.

Experiments:
Assay in all cases: relative viability (nuclei count vs DMSO), 5 days (fraction); higher = more cells survive
[1] = compound: C[As](C)SC[C@H](NC(=O)CC[C@H](N)C(=O)O)C(=O)NCC(=O)O [Darinaparsin]
Outline: (§1)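 In 1536-well plates, lung cancer cell lines rested overnight at 37 °C before five library-drug doses (not always all listed), √10 apart, were pinned onto vehicle-anchored plates. Nuclei were counted with MetaXpress from 4× Hoechst images taken after 5 days without medium change. Viability compares treated-well with vehicle-well nuclei as a median over plates, and plates needed control CV below 25% plus at least one doubling to pass.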

[2] = compound: C1CC2=C(C1)C=C(C=C2)OC3=NC(=C4C(=N3)N(C=N4)CC5=CC=C(C=C5)C6=CC=CC=C6)N[C@@H](CC7=CC=CC=C7)CO [QS11]
Outline: as §1

[3] = compound: CC1=C(C=C(C=C1)NC(=O)C2=CC(=CC=C2)C(C)(C)C#N)NC3=CC4=C(C=C3)N=CN(C4=O)C [AZ628]
Outline: as §1

Cell Line	relative viability ([1]; 0.08 µM)	relative viability ([1]; 0.8 µM)	relative viability ([1]; 2.53 µM)	relative viability ([1]; 8 µM)	relative viability ([2]; 0.08 µM)	relative viability ([2]; 0.253 µM)	relative viability ([2]; 0.8 µM)	relative viability ([2]; 2.53 µM)	relative viability ([2]; 8 µM)	relative viability ([3]; 0.08 µM)	relative viability ([3]; 0.253 µM)	relative viability ([3]; 0.8 µM)	relative viability ([3]; 2.53 µM)	relative viability ([3]; 8 µM)
NCI-H1437	1.08	1.02	0.973	1.21	0.965	1.02	0.752	0.901	0.929	0.988	0.938	0.858	1.01	1.01
NCI-H460	1.1	1	0.997	1.35	1.05	1.02	0.777	0.96	0.796	0.977	0.996	0.908	1.04	0.673
HARA	1.08	0.88	0.914	1.04	0.931	0.875		1.02	0.995	0.978	0.962	0.825	0.974	0.563
NCI-H2085	0.998	0.985	0.958	0.999	0.946	0.953	0.968	1	1.09	1.08	0.98	1	1.03	0.882
NCI-H1395	0.995	0.883	0.815	0.938	0.833	0.976	1	0.881	0.986	1.02	0.794	0.92	0.92	0.832
RERF-LC-KJ	1.05	1.07	0.944	1.12	0.98	0.954	0.912	0.974	0.981	1.01	0.981	0.883	0.965	0.887
HCC-78	1	0.918	0.936	1.09	0.958	0.955	0.94	1.03	1.05	1.09	0.911	1.08	1.05	0.932
NCI-H2087	1.14	1.14	1.01	1.13	1.02	0.937	0.854	0.874	0.898	0.92	0.671	0.729	0.814	0.336
A549	1	0.987	0.991	1.21	0.974	0.971	0.829	0.912	0.927	1.02	0.865	0.787	0.897	0.452
SK-LU-1	1.27	0.876	0.821	1.22	0.968	1.07	0.984	0.993	0.97	0.653	0.901	0.931	0.892	0.769
EMC-BAC-2	1.18	0.942	1.04	1.01	1.02	0.964	0.86	0.986	0.79	1.05	1	1.04	1.07	1.09
EBC-1	1.2	0.971	0.935	1.05	1.06	1.05	0.934	0.97	0.92	0.955	0.958	0.983	0.911	0.625
NCI-H1623	0.925	1.06	0.975	1.02	0.912	1.03	0.862	0.871	1.04	0.992	0.979	0.604	0.858	0.615
A-427	1.1	0.96	1.03	1.13	0.862	1.05		1.05	1.04	0.999	0.891	0.884	0.919	0.436
NCI-H522	0.969	0.992	0.972	1.07	0.872	0.96	0.934	0.944	0.875	0.922	0.827	0.755	1.11	0.815
NCI-H727	0.895	0.884	0.986	1.04	0.989	0.975	0.867	0.935	0.752	0.777	0.531	0.389	0.543	0.294
NCI-H2170	1.11	0.978	0.845	1.18	1.04	1	0.728	1.05	1.2	1.01	0.964	0.936	1.02	0.983
COR-L23	1.11	0.995	0.96	1.37	1.02	1.01	0.827	0.918	0.648	1.08	1.1	0.957	1.12	0.614
NCI-H1299	1.07	1.01	0.978	1.12	1.07	1.04	0.91	0.94	0.797	1.1	1.09	1.04	1.2	0.84
PC-3 [JPC-3]	1.14	1.06	1.05	1.08	0.965	1.04	0.956	1.04	1.02	1.05	1.06	1.16	1.11	0.951
NCI-H520	1.12	0.947	0.833	1.09	0.864	1.04	1.12	1.11	1.14	1.06	0.994	0.937	0.937	0.878
